Literature values as cited in US11071776B2, “Nanoparticles for treatment of allergy” (priority 2012, dated 2021).

**Q.** For `CCCCCCCCCCCCCCCCCCCCCCCCCC(=O)N[C@@H](CO[C@H]1O[C@H](CO)[C@H](O)[C@H](O)[C@H]1O)[C@H](O)[C@H](O)CCCCCCCCCCCCCC` [αGalCer, alpha-galactosylceramide], which toxicity to humans is on record?
**A.** Its toxicity to humans is “not toxic to humans”.
